In article PMC5773572, “High-throughput analysis using non-depletive SPME: challenges and applications to the determination of free and total concentrations in small sample volumes” (Scientific Reports, 2018):

Tests used:
5% calf serum in PBS [1] = assay: Protein binding by rapid equilibrium dialysis (RED) in 5% calf serum; format: in vitro ADME; conditions: 8K MWCO
Protocol: Equipments. […] Impact™ protein precipitation plates were purchased from Phenomenex (Torrance, CA, USA). Sample preparation for RED. […] RED protocol. […] Aliquots (400µL) of the spiked treatment medium solutions were added to the donor wells followed by the addition of600µL of blank medium to the acceptor cells. […] The experiment was performed in triplicate for all compounds and concentrations.

plasma proteins = conditions: value reported in the literature, used to calculate the expected free amount; cited from earlier work
5% calf serum in PBS [2] = assay: Protein binding by high-throughput SPME fiber method in 5% calf serum in PBS
Protocol: The SPME experimental workflow consisted of five major steps. First, prior to extraction, fibers were conditioned in 100 µL of desorption solution ACN/H2O (80/20, v/v), which was acidified to contain 0.1% (v/v) formic acid. The second step, occurring prior to extraction, involved submersing the fiber in 100 µL of ultrapure water to remove traces of solvent from the extraction phase. This step was performed for 10 seconds using 100 rpm agitation, with water temperature set to 37 °C in order to avoid a temperature gradient between the fiber and the sample, as this could influence the initial uptake of analytes. […] This step was critical, as it ensured that there were no traces of binding components remaining on the coating that could interfere with the quantitation of analytes extracted by the SPME fiber. […]
(§1) The reliability of the new fiber-based SPME high-throughput method was tested by applying it to the determination of the protein binding (PB) percentages of the selected analytes. […] The protein binding of each compound was calculated using the slope ratios of the linear portions of the calibration curves. […]
The developed SPME method was further evaluated using a matrix consisted of 5% CS in PBS to mimic conditions typically used in in vitro cell assay applications. […]

calf serum (CS) = assay: Protein binding by ultra-thin coated HLB fiber SPME, slope ratio of calibrations in PBS vs 100% calf serum; conditions: 100% calf serum vs PBS pH 7.4; fiber SPME, 5 min extraction, 37 °C, 100 µL sample
Protocol: (§2) The SPME experimental workflow consisted of five major steps. First, prior to extraction, fibers were conditioned in 100 µL of desorption solution ACN/H2O (80/20, v/v), which was acidified to contain 0.1% (v/v) formic acid. The second step, occurring prior to extraction, involved submersing the fiber in 100 µL of ultrapure water to remove traces of solvent from the extraction phase. This step was performed for 10 seconds using 100 rpm agitation, with water temperature set to 37 °C in order to avoid a temperature gradient between the fiber and the sample, as this could influence the initial uptake of analytes. Following, extraction was performed on 100 µL of sample for 5 min, with samples thermostated to 37 °C, using 100 rpm agitation, prior to extraction. The fourth step consisted of a second rinsing of the fiber with 100 µL of water for 10 seconds to remove matrix components from the fiber. This step was critical, as it ensured that there were no traces of binding components remaining on the coating that could interfere with the quantitation of analytes extracted by the SPME fiber. […]
as §1

[3] = as above; conditions: bovine (calf), 100% calf serum, pH 7.4
Protocol: as §2, §1

fraction unbound at 5 min [3] | Structure (SMILES) | binding values in 5% CS (RED) (5% calf serum in PBS [1]) [%] | Protein binding (plasma proteins) [%] | PB values in 5% CS (SPME) (5% calf serum in PBS [2]) [%] | protein binding (PB) (calf serum (CS)) [%]
– | CN1CCCC1c1cccnc1 (racemic) [Nicotine, (±) nicotine] | < 10 | <10 | 8 | –
– | CCN(CC)C(=O)c1cccc(C)c1 [DEET, N,N-Diethyl-meta-toluamide] | < 10 | – | 38 | 71
0.02 | O=C(O)Cc1ccccc1Nc1c(Cl)cccc1Cl [Diclofenac, diclofenac] | 91 | – | – | –
